The values below come from patent US6172081A, “Tetrahydroisoquinoline 3-carboxamide derivatives” (Novartis AG, priority 1999, dated 2001).

Common to all, as to format: biochemical
For experiment [1], the target named is T1, human plasma DPP-IV (Homo sapiens, UniProt P27487).
T1 construct: DPP-IV activity in human and rat plasma; from tissue; host or cells: human plasma
Nature of the experiment: Inhibition of DPP-IV activity in human plasma. Particulars: substrate H-Glycine-Proline-AMC, pH 7.8, room temperature, 20 min. The protocol: (§1) 192-197 (1992). Briefly, five […] are added to 96-well flat-bottom mictotiter plates (Falcon), followed by the addition of 5 mL of 80 mM MgCl2 in incubation buffer (25 mM HEPES, 140 mM NaCl, 1% RIA-grade BSA, pH 7.8). After a 5 min. incubation at room temperature, the reaction is initiated by the addition of 10 mL of incubation buffer containing 0.1 mM substrate (H-Glycine-Proline-AMC; AMC is 7-amino-4-methylcoumarin). The plates are covered with aluminum foil (or kept in the dark,) and incubated at room temperature for 20 min. After the 20 min. reaction, fluorescence is measured using a CytoFluor 2350 fluorimeter (Excitation 380 nm Emission 460 nm; sensitivity setting 4). Test compounds are typically added as 2 mL additions and the assay buffer volume is reduced to 13 mL. A fluorescence-concentration curve of free AMC is generated using […] solutions of AMC in assay buffer. The curve generated is linear and is used for interpolation of substrate consumption (catalytic activity in nmoles substrate cleaved/min). As with the previous assay, the potency of the test compounds as DPP-IV inhibitors, expressed as IC50, is calculated from 8-point, dose-response curves using a 4 parameter logistic function.

Experiment [2] has as its target T2, DPP-IV (Homo sapiens, UniProt P27487).
T2 construct: DPP-IV activity from human colonic carcinoma cell extracts; endogenous in cells; host or cells: Caco-2 (ATCC HTB 37), differentiated to induce DPP-IV expression; nonidet-P40 extract
The experiment can be described thus: Caco-2 DPP-IV Assay (inhibition of DPP-IV activity from human colonic carcinoma cell extracts). The settings on record: Caco-2 cell extract; substrate H-Alanine-Proline-pNA; pH 7.4; room temperature, 10 minutes. An excerpt:
As indicated above, all of the compounds of formula I, and their corresponding pharmaceutically acceptable acid addition salts, are useful in inhibiting DPP-IV. […] The human colonic carcinoma cell line Caco-2 was obtained from the American Type Culture Collection (ATCC HTB 37). Differentiation of the cells to induce DPP-IV expression was accomplished as described by Reisher, et al. in an article entitled "Increased expression of . . . intestinal cell line Caco-2" in Proc. Natl. Acad. Sci., Vol. 90, pgs. 5757-5761 (1993). Cell extract is prepared from cells solubilized in 10 mM Tris-HCl, 0.15 M NaCl, 0.04 t.i.u. aprotinin, 0.5% nonidet-P40, pH 8.0, which is centrifuged at 35,000 g for 30 min. at 4° C. to remove cell debris. The assay is conducted by adding […] solubilized Caco-2 protein, diluted to a final volume of 125 mL in assay buffer (25 mM Tris-HCl pH 7.4, 140 mM NaCl, 10 mM KCl, 1% bovine serum albumin) to microtiter plate wells. The reaction is initiated by adding 25 mL of 1 mM substrate (H-Alanine-Proline-pNA; pNA is p-nitroaniline). The reaction is run at room temperature for 10 minutes after which time a 19 mL volume of 25% glacial acetic acid is added to stop the reaction. Test compounds are typically added as 30 mL additions and the assay buffer volume is reduced to 95 mL. A standard curve of free p-nitroaniline is generated using […] solutions of free pNA in assay buffer. The curve generated is linear and is used for interpolation of substrate consumption (catalytic activity in nmoles substrate cleaved/min). The endpoint is determined by measuring absorbance at 405 nm in a Molecular Devices UV Max microtiter plate reader. The potency of the test compounds as DPP-IV inhibitors, expressed as IC50, is calculated from 8-point, dose-response curves using a 4-parameter logistic function.

Experiment [3] has as its target T3, rat plasma DPP-IV (Rattus norvegicus, UniProt P14740).
T3 construct: DPP-IV activity in human and rat plasma; from tissue; host or cells: rat plasma
The experiment can be described thus: Inhibition of DPP-IV activity in rat plasma. Particulars: substrate H-Glycine-Proline-AMC, pH 7.8, room temperature, 20 min. The protocol: as §1

Structures can show the parent of a compound that is named as a salt.

T1 sequence (P27487 39-766 limits assumed): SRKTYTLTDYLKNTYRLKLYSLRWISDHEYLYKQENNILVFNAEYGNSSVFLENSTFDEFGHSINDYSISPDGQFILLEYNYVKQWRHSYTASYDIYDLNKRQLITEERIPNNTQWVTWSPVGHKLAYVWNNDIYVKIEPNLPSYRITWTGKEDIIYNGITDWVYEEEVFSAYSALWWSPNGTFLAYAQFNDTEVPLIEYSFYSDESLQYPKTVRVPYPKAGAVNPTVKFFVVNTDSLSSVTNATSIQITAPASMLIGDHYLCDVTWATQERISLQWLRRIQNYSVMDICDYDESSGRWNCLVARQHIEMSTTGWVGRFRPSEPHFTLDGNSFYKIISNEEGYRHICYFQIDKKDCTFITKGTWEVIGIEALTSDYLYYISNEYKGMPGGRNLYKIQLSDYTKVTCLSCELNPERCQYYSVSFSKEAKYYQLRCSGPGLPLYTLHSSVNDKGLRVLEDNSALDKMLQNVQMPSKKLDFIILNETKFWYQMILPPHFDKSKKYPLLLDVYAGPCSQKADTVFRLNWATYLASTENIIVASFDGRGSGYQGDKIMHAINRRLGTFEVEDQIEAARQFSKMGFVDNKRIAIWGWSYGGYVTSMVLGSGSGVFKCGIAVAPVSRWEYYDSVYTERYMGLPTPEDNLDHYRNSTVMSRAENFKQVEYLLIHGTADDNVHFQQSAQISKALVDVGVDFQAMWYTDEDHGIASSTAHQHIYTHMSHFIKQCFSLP
T2 sequence (P27487 whole entry): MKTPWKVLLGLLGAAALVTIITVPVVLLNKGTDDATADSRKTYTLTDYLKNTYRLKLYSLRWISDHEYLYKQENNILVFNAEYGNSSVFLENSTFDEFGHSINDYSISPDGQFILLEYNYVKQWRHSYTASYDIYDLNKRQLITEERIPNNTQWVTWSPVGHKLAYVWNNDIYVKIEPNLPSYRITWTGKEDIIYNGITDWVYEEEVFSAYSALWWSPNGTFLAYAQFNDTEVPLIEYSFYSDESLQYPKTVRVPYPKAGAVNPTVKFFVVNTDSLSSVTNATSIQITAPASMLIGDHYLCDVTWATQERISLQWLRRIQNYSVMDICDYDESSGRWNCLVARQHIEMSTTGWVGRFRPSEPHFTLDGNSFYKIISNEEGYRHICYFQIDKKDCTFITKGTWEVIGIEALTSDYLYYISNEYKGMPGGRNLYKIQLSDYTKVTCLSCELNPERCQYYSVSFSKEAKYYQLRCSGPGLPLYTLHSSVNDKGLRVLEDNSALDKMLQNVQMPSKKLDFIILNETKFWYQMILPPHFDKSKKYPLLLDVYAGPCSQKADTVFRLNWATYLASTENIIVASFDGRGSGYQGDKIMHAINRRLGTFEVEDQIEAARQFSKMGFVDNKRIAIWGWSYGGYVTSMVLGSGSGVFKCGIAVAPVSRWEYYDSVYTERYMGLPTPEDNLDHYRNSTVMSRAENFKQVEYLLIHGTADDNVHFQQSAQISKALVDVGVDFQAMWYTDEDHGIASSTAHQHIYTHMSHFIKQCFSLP
T3 sequence (P14740 37-767 limits assumed): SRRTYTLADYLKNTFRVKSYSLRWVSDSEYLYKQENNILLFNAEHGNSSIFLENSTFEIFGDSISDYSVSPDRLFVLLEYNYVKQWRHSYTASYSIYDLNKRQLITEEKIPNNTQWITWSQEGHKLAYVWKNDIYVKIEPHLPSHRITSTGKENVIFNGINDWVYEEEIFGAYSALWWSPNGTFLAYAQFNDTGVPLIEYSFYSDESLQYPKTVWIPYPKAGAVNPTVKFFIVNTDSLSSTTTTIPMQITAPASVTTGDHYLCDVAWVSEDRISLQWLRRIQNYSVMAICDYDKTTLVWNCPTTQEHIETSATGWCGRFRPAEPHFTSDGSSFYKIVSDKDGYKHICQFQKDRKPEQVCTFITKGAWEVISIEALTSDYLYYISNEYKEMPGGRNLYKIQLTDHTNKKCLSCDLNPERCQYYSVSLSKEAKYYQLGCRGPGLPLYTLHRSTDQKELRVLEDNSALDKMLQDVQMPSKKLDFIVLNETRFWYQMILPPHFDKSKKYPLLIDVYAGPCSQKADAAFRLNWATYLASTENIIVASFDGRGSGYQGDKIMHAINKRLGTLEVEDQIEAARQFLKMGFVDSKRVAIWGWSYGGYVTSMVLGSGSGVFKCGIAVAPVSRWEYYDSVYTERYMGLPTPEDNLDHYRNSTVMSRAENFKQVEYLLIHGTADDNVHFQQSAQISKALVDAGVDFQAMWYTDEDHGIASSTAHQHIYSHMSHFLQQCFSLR

Turning to `COc1cc2c(cc1OC)CC(C(=O)N1CCC[C@H]1C#N)NC2` (single isomer, unassigned; diastereomer b) [Ex. 7, 1-[1,2,3,4-tetrahydro-6,7-dimethoxy-3-isoquinolinyl]carbonyl-2-Pyrrolidinecarbonitrile [Diastereomer B]], the figures for the 50% inhibitory concentration (IC50) in experiment [1], in experiment [2] and in experiment [3] were 12 nM, 13 nM and 78 nM, respectively.

As to `N#C[C@@H]1CCCN1C(=O)[C@@H]1Cc2ccccc2CN1` [Ex. 1, [S-(R*,R*)]-1-(1,2,3,4-tetrahydro-3-isoquinolinyl)carbonyl-2-pyrrolidinecarbonitrile trifluoroacetate], the IC50 in experiment [1] stood at 41 nM; in experiment [2], 7.6 nM; in experiment [3] it was 790 nM.

In experiment [2], `N#C[C@@H]1CCCN1C(=O)[C@@H]1Cc2ccc(O)cc2CN1` [Ex. 2, [S-(R*,R*)]-1-(1,2,3,4-tetrahydro-7-hydroxy-3-isoquinolinyl)carbonyl-2-Pyrrolidinecarbonitrile trifluoroacetate] returned an IC50 of 4 nM.

Consider `COc1ccc2c(c1)CN[C@H](C(=O)N1CCC[C@H]1C#N)C2` [Ex. 3, [S-(R*,R*)]-1-(1,2,3,4-tetrahydro-7-methoxy-3-isoquinolinyl)carbonyl-2-Pyrrolidinecarbonitrile trifluoroacetate], for which the IC50 in experiment [1] was determined as 4 nM; in experiment [2] it was 14 nM; in experiment [3], 16 nM.

On to `N#C[C@@H]1CCCN1C(=O)[C@@H]1Cc2ccc(OCc3ccccc3)cc2CN1` [Ex. 4, [S-(R*,R*)]-1-(1,2,3,4-tetrahydro-7-phenylmethoxy-3-isoquinolinyl)carbonyl-2-Pyrrolidinecarbonitrile trifluoroacetate], for which the figures for the IC50 in experiment [1], in experiment [2] and in experiment [3] were 167 nM, 9 nM and 1300 nM, respectively.

For `CCCOc1ccc2c(c1)CN[C@H](C(=O)N1CCC[C@H]1C#N)C2` [Ex. 5, [S-(R*,R*)]-1-(1,2,3,4-tetrahydro-7-propoxy-3-isoquinolinyl)carbonyl-2-Pyrrolidinecarbonitrile trifluoroacetate], the half-maximal inhibitory concentration (IC50) in experiment [1] is 49 nM; in experiment [2] it was 8 nM; in experiment [3], 315 nM.

As to `COc1cc2c(cc1OC)CC(C(=O)N1CCC[C@H]1C#N)NC2` (stereo partly drawn) [Ex. 6, [S-(R*,R*)]-1-[1,2,3,4-tetrahydro-6,7-dimethoxy-3-isoquinolinyl]carbonyl-2-Pyrrolidinecarbonitrile], the IC50 in experiment [2] was over 10000 nM.

`CCN(CC)CCCOc1ccc2c(c1)CNC(C(=O)N1CCCC1C#N)C2` (stereo not drawn) [Ex. 8, [S-(R*,R*)]-1-[7-(3-diethylamino)propoxy-1,2,3,4-tetrahydro-3-isoquinolinyl]carbonyl-2-Pyrrolidinecarbonitrile] returned an IC50 in experiment [2] of 10 nM.

For `CCOCCOCCOc1ccc2c(c1)CN[C@H](C(=O)N1CCC[C@H]1C#N)C2` [Ex. 9, [S-(R*,R*)]-1-[7-[2-(2-ethoxyethoxy)ethoxy]-1,2,3,4-tetrahydro-3-isoquinolinyl]carbonyl-2-Pyrrolidinecarbonitrile trifluoroacetate], the IC50 in experiment [2] was found to be 10 nM.

Regarding `N#C[C@@H]1CCCN1C(=O)[C@@H]1Cc2ccc(OCC(N)=O)cc2CN1` [Ex. 10, [S-(R*,R*)]-[3-(2-cyano-1-pyrrolidinyl)carbonyl-1,2,3,4-tetrahydro-7-isoquinolinyl]oxy-Acetamide], the results for the IC50 in experiment [1], in experiment [2] and in experiment [3] were 5 nM, 16 nM and 12 nM, respectively.

With `N#C[C@@H]1CCCN1C(=O)[C@@H]1Cc2ccc(OCC(=O)O)cc2CN1` [Ex. 11, [S-(R*,R*)]-[3-(2-cyano-1-pyrrolidinyl)carbonyl-1,2,3,4-tetrahydro-7-isoquinolinyl]oxy-Acetic acid], in experiment [2], the midpoint of inhibition, the IC50, lay at 10 nM.
